Measurements reported in publication PMC10949812, “Unveiling CXCR2 as a promising therapeutic target in renal cell carcinoma: exploring the immunotherapeutic paradigm shift through its inhibition by RCT001” (Journal of Experimental & Clinical Cancer Research : CR, 2024).

Experiments:
CXCR2 [1] = molecular target: T1, CXCR2 (Homo sapiens, UniProt P25025); test: fluorescent conformational probe (λmax shift) on recombinant reconstituted CXCR2, dose response and kinetics; type: binding
T1 construct: recombinant CXCR2 reconstituted in detergent buffer containing lipids
T1 sequence (P25025 1-360): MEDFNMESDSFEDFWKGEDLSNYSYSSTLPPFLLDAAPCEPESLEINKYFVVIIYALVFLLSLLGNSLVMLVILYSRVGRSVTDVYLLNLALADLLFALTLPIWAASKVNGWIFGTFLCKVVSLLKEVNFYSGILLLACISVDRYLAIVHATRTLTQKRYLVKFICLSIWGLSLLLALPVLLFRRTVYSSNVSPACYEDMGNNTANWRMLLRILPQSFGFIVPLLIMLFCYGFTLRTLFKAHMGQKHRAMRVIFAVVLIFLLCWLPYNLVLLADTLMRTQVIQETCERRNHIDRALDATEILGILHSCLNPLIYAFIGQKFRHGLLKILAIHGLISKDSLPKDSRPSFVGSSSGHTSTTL

CXCR2 [2] = molecular target: T1, CXCR2; test: fluorescent conformational probe (λmax shift) kinetics on recombinant CXCR2, SX-682 […] after CXCL8 […]; type: biochemical

Row | EC50 (CXCR2 [1]) | SMILES | fluorescent conformational probe (λmax shift) kinetics on recombinant CXCR2, SX- (CXCR2 [2])
1 | 42.7 nM | O=C(Nc1cc(Cl)cc(Cl)c1)Nc1nc2ccc([N+](=O)[O-])cc2s1 [RCT001, 1-(3,5-dichlorophenyl)-3-(6-nitrobenzo[d]thiazol-2-yl) urea] | –
2 | – | O=C(Nc1ccc(F)cc1)c1cnc(SCc2cc(OC(F)(F)F)ccc2B(O)O)nc1 [SX-682] | Unlike RCT001, SX-682 inhibited CXCL8-induced pocket opening of CXCR2 (Fig. S3c), firmly establishing it as a standard CXCR2 antagonist
